pEC50: −log10 of the molar value.

Holding throughout (type): cell-based
Test [1] concerns human primary melanocytes (NHEM: Normal Human Epidermal Melanocytes). Put plainly: Protection of melanocytes from tunicamycin (ER stress) induced cell death, MTT assay, NHEM. The note with it: compound at 25-30 μM, 6 h pretreatment, tunicamycin 200 ng/ml, total 72 h, cell growth over tunicamycin treatment. The protocol: (§1) Compounds synthesized under present invention were tested for their in vitro potency. The potency was tested as their ability to protect melanocytes from ER stress induced cell death. ER stress was caused by the treatment of tunicamycin. The results obtained are summarized in Table-I, Table-II and Table-III for mouse B16F10 cells, human A375 cells and human primary melanocytes respectively. Table-IV and Table-V describes the potency of the compounds in effective concentration 50 (EC50) which means the dose of compound needed to get the 50% of maximum effect.
(§2) For the estimation of potency, mouse B16F10, human A375 or human primary melanocytes (NHEM) cells were pretreated in quadruplicates with these compounds for 6 hours. After 6 hours of incubation, tunicamycin was added at either 300 ng/ml for B16F10 cells or at 100 ng/ml for A375 cells or at 200 ng/ml for NHEM to induce stress mediated cell death and cultured further for a total of 72 hours. The vehicle (DMSO) concentration was kept constant for each well. After 72 hours of treatment, MTT assay was performed to measure the cell growth and vehicle control was kept at 100%. Effect of the treatment of compounds was calculated as cell growth over tunicamycin treatment. For the estimation of Effective Concentration 50 (EC50), cells were treated with different concentration of compounds along with tunicamycin and MTT assay was performed. The EC50 values were calculated by GraphPad Prism 7 software.

A further test relates to human A375 cells. Put plainly: Protection of melanocytes from tunicamycin (ER stress) induced cell death, MTT assay, A375. As to conditions: for pEC50: Homo sapiens, A-375, different concentrations of compound along with tunicamycin, GraphPad Prism 7; for % Recovery: compound at 25-30 μM, 6 h pretreatment, tunicamycin 100 ng/ml, total 72 h, cell growth over tunicamycin treatment. The protocol:
as §1, §2
In general terms: Tetrazolium dyes change colour on reduction, which living cells bring about.

For another test, the system named is mouse B16F10 cells. Put plainly: Protection of melanocytes from tunicamycin (ER stress) induced cell death, MTT assay, B16F10. As to conditions: for pEC50: Mus musculus, B16-F10, different concentrations of compound along with tunicamycin, GraphPad Prism 7; for % Recovery: compound at 25-30 μM, 6 h pretreatment, tunicamycin 300 ng/ml, total 72 h, cell growth over tunicamycin treatment. The protocol: as §1, §2

Turning to `CCCC(=O)NCCc1c[nH]c(-c2ccc(Cl)cc2)n1` [Compound 002, N-(2-(2-(4-chlorophenyl)-1H-imidazol-4-yl)ethyl)butyramide], the figures for the “% Recovery” value (in test [1]; with human A375 cells; in the test on mouse B16F10 cells) were 17%, 22% and 58%, respectively. Further, the values for the negative-log EC50 (pEC50) with human A375 cells and in the test with mouse B16F10 cells were 4.69 and 5.57, respectively.

In the case of `CC(C)OCCCNC(=O)Cc1c[nH]c(-c2ccc(Cl)cc2)n1` [Compound 010, 2-(2-(4-chlorophenyl)-1H-imidazol-4-yl)-N-(3-isopropoxypropyl)acetamide], the “% Recovery” value in the test on human A375 cells stood at 17%; in the test on mouse B16F10 cells it was 12%.

With `O=C(Cc1c[nH]c(-c2ccc(Cl)cc2)n1)Nc1ccc(C(F)(F)F)cc1` [Compound 014, 2-(2-(4-chlorophenyl)-1H-imidazol-4-yl)-N-(4-(trifluoromethyl)phenyl)acetamide], the negative logarithm of the EC50 (pEC50) (usually the EC50 on a negative log10 scale, so that one unit is a factor of ten) in the test on human A375 cells was 4.48. Moreover, the “% Recovery” value in the test with human A375 cells worked out at 36%; in the test on mouse B16F10 cells it was 52%.

With `O=C(Cc1c[nH]c(-c2ccc(Cl)cc2)n1)N1CCCC1` [Compound 016, 2-(2-(4-chlorophenyl)-1H-imidazol-4-yl)-1-(pyrrolidin-1-yl)ethan-1-one], the “% Recovery” value in the test with human A375 cells came out at 17%; in the test on mouse B16F10 cells it was 14%.

For the compound `Cn1cc(CC(=O)NCCc2ccc(F)cc2)nc1-c1ccc(Cl)cc1` [Compound 022, 2-(2-(4-chlorophenyl)-1-methyl-1H-imidazol-4-yl)-N-(4-fluorophenethyl)acetamide], the figures for the “% Recovery” value with human A375 cells and with mouse B16F10 cells were 18% and 44%, respectively. Moreover, the pEC50 in the test with mouse B16F10 cells was 4.86.

With `CC(C)(C)CC(=O)NCCc1c[nH]c(-c2ccc(Cl)cc2)n1` [Compound 025, N-(2-(2-(4-chlorophenyl)-1H-imidazol-4-yl)ethyl)-3,3-dimethylbutanamide], the “% Recovery” value in test [1] is given as 41%; in the test with human A375 cells, 57%; in the test on mouse B16F10 cells, 55%. The pEC50 is 4.85 in the test with human A375 cells and 5.48 in the test with mouse B16F10 cells.

Consider `CCC(C)(C)C(=O)NCCc1c[nH]c(-c2ccc(Cl)cc2)n1` [Compound 026, N-(2-(2-(4-chlorophenyl)-1H-imidazol-4-yl)ethyl)-2,2-dimethylbutanamide], for which the “% Recovery” value in test [1] is 30%; in the test with human A375 cells, 50%; in the test on mouse B16F10 cells, 15%. Also, the negative logarithm of the EC50 (pEC50) in the test with human A375 cells is 4.73; in the test with mouse B16F10 cells, 5.07.

As to `CC(C)CC(=O)NCCc1c[nH]c(-c2ccc(Cl)cc2)n1` [Compound 027, N-(2-(2-(4-chlorophenyl)-1H-imidazol-4-yl)ethyl)-3-methylbutanamide], the “% Recovery” value in test [1] is listed as 33%. In the test with human A375 cells, the pEC50 was 4.83 and the “% Recovery” value amounted to 56%.

Take `O=C(NCCc1c[nH]c(-c2ccc(Cl)cc2)n1)C1CC1` [Compound 046, N-(2-(2-(4-chlorophenyl)-1H-imidazol-4-yl)ethyl)cyclopropanecarboxamide]: the “% Recovery” value is listed as 10% in test [1], 63% in the test on human A375 cells and 27% in the test with mouse B16F10 cells. In the test on human A375 cells, this compound showed a pEC50 of 5.10.

As for `O=C(NCCc1c[nH]c(-c2ccc(Cl)cc2)n1)C1CCC1` [Compound 050, N-(2-(2-(4-chlorophenyl)-1H-imidazol-4-yl)ethyl)cyclobutanecarboxamide], the figures for the “% Recovery” value (in test [1]; with human A375 cells; with mouse B16F10 cells) were 5%, 27% and 35%, respectively. This compound had a negative-log EC50 (pEC50) with human A375 cells of 4.48.

Regarding `O=C(NCCc1c[nH]c(-c2ccc(Cl)cc2)n1)c1ccc(F)cc1` [Compound 051, N-(2-(2-(4-chlorophenyl)-1H-imidazol-4-yl)ethyl)-4-fluorobenzamide], the “% Recovery” value in test [1] was found to be 35%; in the test on human A375 cells it was 50%; with mouse B16F10 cells, 22%. The compound also had a pEC50 in the test with human A375 cells of 5.23.

As for `O=C(NCCc1c[nH]c(-c2ccc(Cl)cc2)n1)c1ccc(C(F)(F)F)cc1` [Compound 053, N-(2-(2-(4-chlorophenyl)-1H-imidazol-4-yl)ethyl)-4-(trifluoromethyl)benzamide], the “% Recovery” value was determined as 37% in test [1], 65% in the test with human A375 cells and 24% in the test on mouse B16F10 cells. The pEC50 in the test with human A375 cells was 5.54; with mouse B16F10 cells, 4.74.

Consider `O=C(NCCc1c[nH]c(-c2ccc(Cl)cc2)n1)c1cc(F)cc(F)c1` [Compound 054, N-(2-(2-(4-chlorophenyl)-1H-imidazol-4-yl)ethyl)-3,5-difluorobenzamide], for which the entries for the “% Recovery” value (in test [1]; in the test with human A375 cells; in the test with mouse B16F10 cells) were 46%, 58% and 33%, respectively. This compound gave a pEC50 in the test with human A375 cells of 5.54.

Consider `O=C(NCCc1c[nH]c(-c2ccc(Cl)cc2)n1)C1=CCCC1` [Compound 055, N-(2-(2-(4-chlorophenyl)-1H-imidazol-4-yl)ethyl)cyclopent-1-ene-1-carboxamide], for which the “% Recovery” value is 13% in test [1], 59% in the test with human A375 cells and 10% in the test with mouse B16F10 cells. Besides, the negative logarithm of the EC50 (pEC50) in the test with human A375 cells was 5.05.

With `O=C(NCCc1c[nH]c(-c2ccc(Cl)cc2)n1)C12CC3CC(CC(C3)C1)C2` [Compound 064, (3r,5r,7r)-N-(2-(2-(4-chlorophenyl)-1H-imidazol-4-yl)ethyl)adamantane-1-carboxamide], the “% Recovery” value was 38% in test [1] and 65% with human A375 cells. Also, the negative-log EC50 (pEC50) in the test with human A375 cells was 5.31.

For the compound `O=C(NCCc1c[nH]c(-c2ccc(Cl)cc2Cl)n1)c1ccc(C(F)(F)F)cc1` [Compound 066, N-(2-(2-(2,4-dichlorophenyl)-1H-imidazol-4-yl)ethyl)-4-(trifluoromethyl)benzamide], the figures for the pEC50 in the test with human A375 cells and in the test on mouse B16F10 cells were 4.92 and 5.14, respectively. Further, the figures for the “% Recovery” value in the test on human A375 cells and in the test with mouse B16F10 cells were 44% and 50%, respectively.

`CCCCCC(=O)NCCc1c[nH]c(-c2ccc(Cl)cc2)n1` [Compound 067, N-(2-(2-(4-chlorophenyl)-1H-imidazol-4-yl)ethyl)hexanamide]: in the test with human A375 cells, the negative logarithm of the EC50 (pEC50) is 5.51 and the “% Recovery” value came out at 54%. For the same compound, in the test on mouse B16F10 cells, the pEC50 is 5.01 and the “% Recovery” value is reported as 40%.

Take `CCCCCCCC(=O)NCCc1c[nH]c(-c2ccc(Cl)cc2)n1` [Compound 068, N-(2-(2-(4-chlorophenyl)-1H-imidazol-4-yl)ethyl)octanamide]: in the test with human A375 cells, the pEC50 is 5.05 and the “% Recovery” value is 42%. For the same compound, in the test with mouse B16F10 cells, the pEC50 was 4.47 and the “% Recovery” value turned out to be 21%.

As for `O=C(NCCc1c[nH]c(-c2ccc(Cl)cc2Cl)n1)c1ccc(F)cc1` [Compound 070, N-(2-(2-(2,4-dichlorophenyl)-1H-imidazol-4-yl)ethyl)-4-fluorobenzamide], in the test with human A375 cells, the negative logarithm of the EC50 (pEC50) was 5.09 and the “% Recovery” value turned out to be 44%. In the test with mouse B16F10 cells, the negative logarithm of the EC50 (pEC50) is 4.92 and the “% Recovery” value came to 51%.

On to `O=C(NCCc1c[nH]c(-c2ccc(Cl)cc2Cl)n1)c1cc(F)cc(F)c1` [Compound 071, N-(2-(2-(2,4-dichlorophenyl)-1H-imidazol-4-yl)ethyl)-3,5-difluorobenzamide], for which the pEC50 is 4.98 in the test with human A375 cells and 4.96 with mouse B16F10 cells. Besides, the entries for the “% Recovery” value in the test with human A375 cells and in the test with mouse B16F10 cells were 39% and 58%, respectively.

The record behind these values is US12378203B2, “Imidazole compounds, process for the synthesis and uses thereof” (AHAMMUNE BIOSCIENCES PRIVATE LIMITED, priority 2018, dated 2025).
